According to patent US10676486B2, “Macrocyclic RIP2 kinase inhibitors” (ONCODESIGN S.A., priority 2014, dated 2020):

How the values were obtained:
RIP2 recombinant protein = RIP2 recombinant protein (Homo sapiens, UniProt O43353); assay: Radiometric protein kinase assay (33PanQinase Activity Assay) for RIP2, peptide-based; format: biochemical; details: for IC50: ATP 3.0 μM, RIP2 15.7 nM, 30° C., 60 minutes; for remaining activity at 0.1 µM / remaining activity at 1 µM: 1 h; for remaining activity at 0.1 µM: compound at 0.1 μM; for remaining activity at 1 µM: compound at 1 μM
Method: The inhibition of RIP2 kinase was assessed using RIP2 recombinant protein in an in vitro peptide-based kinase assay.
A radiometric protein kinase assay (^33PanQinase® Activity Assay) is used for measuring the kinase activity. All assays are performed in 96-well FlashPlates™ from Perkin Elmer in a 50 μl reaction volume. The reaction cocktail is pipetted in 4 steps in the following order: • 10 μl of non-radioactive ATP solution (in H2O) • 25 μl of assay buffer/[γ-^33P]-ATP mixture • 5 μl of test sample in 10% DMSO • 10 μl of enzyme/substrate mixture
The assay for RIP2 contains 70 mM HEPES-NaOH pH 7.5, 3 mM MgCl2, 3 mM MnCl2, 3 μM Na-orthovanadate, 1.2 mM DTT, 50 μg/mI PEG20000, ATP (3.0 μM), [γ-^33P]-ATP (approx. 5×10^05 cpm per well), protein kinase RIP2 (15.7 nM) and substrate (RBER-Chktide), 2.0 μg/50 μl).
The reaction cocktails were incubated at 30° C. for 60 minutes. The reaction was stopped with 50 μl of 2% (v/v) H3PO4, plates were aspirated and washed two times with 200 μl 0.9% (w/v) NaCl. Incorporation of ^33Pi (counting of “cpm”) was determined with a microplate scintillation counter.
The compounds are dissolved to 10 mM in DMSO. Where needed, solutions are sonicated in a bath sonicator.
Table 4 provides the pIC50 values and % Remaining activity values at two concentrations (1 μM and 0.1 μM) of the compounds according to the invention, obtained using the above mentioned kinase assay.

[1] = several clinical cases; The Oncologist (2013) 18: e3-e5; cited from earlier work
RIP2 = molecular target: T1, RIP2 (Mus musculus, UniProt P58801); details: mouse models of chronic inflammatory bowel diseases; J Biol Chem. (2005) 15, 14981-14988; cited from earlier work
T1 construct: host or cells: mouse (in vivo colitis models)
T1 sequence (P58801 whole entry): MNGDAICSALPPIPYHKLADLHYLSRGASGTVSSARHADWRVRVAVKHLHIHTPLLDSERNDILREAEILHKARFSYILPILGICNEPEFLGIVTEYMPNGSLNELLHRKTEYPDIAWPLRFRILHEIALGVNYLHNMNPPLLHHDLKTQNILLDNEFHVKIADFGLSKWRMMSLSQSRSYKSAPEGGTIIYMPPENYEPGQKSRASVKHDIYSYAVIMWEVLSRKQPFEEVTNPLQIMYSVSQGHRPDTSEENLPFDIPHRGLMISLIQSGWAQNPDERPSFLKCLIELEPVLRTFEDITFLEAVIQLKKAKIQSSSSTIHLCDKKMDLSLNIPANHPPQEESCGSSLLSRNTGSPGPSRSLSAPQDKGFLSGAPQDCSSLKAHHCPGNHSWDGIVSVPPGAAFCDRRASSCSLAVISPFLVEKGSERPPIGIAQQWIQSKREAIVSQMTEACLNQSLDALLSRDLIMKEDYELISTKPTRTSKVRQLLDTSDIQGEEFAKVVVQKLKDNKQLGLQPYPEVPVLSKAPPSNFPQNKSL

RIP2 recombinant protein, sequence (O43353 whole entry): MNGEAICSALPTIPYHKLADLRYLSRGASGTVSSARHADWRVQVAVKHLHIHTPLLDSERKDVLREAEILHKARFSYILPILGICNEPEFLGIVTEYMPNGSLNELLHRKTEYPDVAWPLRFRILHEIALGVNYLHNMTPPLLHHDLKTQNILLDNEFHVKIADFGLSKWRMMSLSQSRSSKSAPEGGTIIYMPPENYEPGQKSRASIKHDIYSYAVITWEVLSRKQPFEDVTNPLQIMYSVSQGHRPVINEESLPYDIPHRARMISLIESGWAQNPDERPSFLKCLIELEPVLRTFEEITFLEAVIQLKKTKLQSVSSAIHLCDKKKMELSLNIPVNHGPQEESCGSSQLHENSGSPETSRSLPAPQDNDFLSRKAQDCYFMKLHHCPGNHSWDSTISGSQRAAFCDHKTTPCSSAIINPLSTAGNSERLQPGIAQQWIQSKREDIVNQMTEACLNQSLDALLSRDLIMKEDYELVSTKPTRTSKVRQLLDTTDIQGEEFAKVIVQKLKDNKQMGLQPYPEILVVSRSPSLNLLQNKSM

Work on `CN1CC2CCCN2CCOc2cccc(c2)-c2cnn3ccc1nc23` (stereo not drawn) [Compound O2] yielded a melting point of 91.2 °C and an IC50 (RIP2 recombinant protein) of less than 100 nM.

Compound `Fc1cc2cc(c1)-c1cnn3ccc(nc13)NC[C@H]1CCCN1CCCO2` [Compound O6] has a melting point greater than 300 °C, a remaining activity at 0.1 µM (RIP2 recombinant protein) of less than 50% and a remaining activity at 1 µM (RIP2 recombinant protein) of less than 50%. It also gave an IC50 (RIP2 recombinant protein) of less than 100 nM.

In the case of `Fc1cc2cc(c1)-c1cnn3ccc(nc13)NCC1CCCCN1CCCO2` (stereo not drawn) [Compound O14], the IC50 (RIP2 recombinant protein) is reported as less than 100 nM.

For `C#Cc1cccc(Nc2ncnc3cc(OCCOC)c(OCCOC)cc23)c1` [Erlotinib], the “clinical effect on psoriasis, arthritic symptoms or insulin-resistant type 2 diabetes” value [1] is given as “efficient to clear psoriasis or reduce arthritic symptoms or insulin-resistant type 2 diabetes”.

Compound `Fc1cc2cc(c1)-c1cnn3ccc(nc13)NC[C@@H]1CCCN1CCCO2` [Compound O11] has a remaining activity at 0.1 µM (RIP2 recombinant protein) of less than 50%, a remaining activity at 1 µM (RIP2 recombinant protein) of less than 50% and an IC50 (RIP2 recombinant protein) of less than 100 nM.

`Fc1cc2cc(c1)-c1cnn3ccc(nc13)NCC1CCCCN1CCO2` (stereo not drawn) [Compound O13] gave a remaining activity at 0.1 µM (RIP2 recombinant protein) of less than 50%, a remaining activity at 1 µM (RIP2 recombinant protein) of less than 50% and an IC50 (RIP2 recombinant protein) of less than 100 nM.

With `Fc1cc2cc(c1)-c1cnn3ccc(nc13)NCC[C@H]1CCCN1CCO2` [Compound O7] the melting point was greater than 300 °C, the remaining activity at 0.1 µM (RIP2 recombinant protein) was less than 50% and the remaining activity at 1 µM (RIP2 recombinant protein) was less than 50%. For the same compound, the IC50 (RIP2 recombinant protein) was less than 100 nM.

For `COc1cc2ncnc(Nc3ccc(F)c(Cl)c3)c2cc1OCCCN1CCOCC1` [Gefitinib], the “clinical effect on psoriasis, arthritic symptoms or insulin-resistant type 2 diabetes” value [1] is given as “efficient to clear psoriasis or reduce arthritic symptoms or insulin-resistant type 2 diabetes”.

`c1cc2cc(c1)-c1cnn3ccc(nc13)NC[C@@H]1CCCN1CCO2` [Compound O8] showed a melting point greater than 300 °C, a remaining activity at 0.1 µM (RIP2 recombinant protein) of less than 50% and a remaining activity at 1 µM (RIP2 recombinant protein) of less than 50%. It also gave an IC50 (RIP2 recombinant protein) of less than 100 nM.

Work on `Clc1cc2cc(c1)-c1cnn3ccc(nc13)NC[C@@H]1CCCN1CCO2` [Compound O4] yielded a melting point greater than 300 °C, a remaining activity at 0.1 µM (RIP2 recombinant protein) of less than 50% and a remaining activity at 1 µM (RIP2 recombinant protein) of less than 50%. The IC50 (RIP2 recombinant protein) was less than 100 nM.

In the case of `c1cc2cc(c1)-c1cnn3ccc(nc13)NCC1CCCN1CCO2` (stereo not drawn) [Compound O1], the melting point is reported as greater than 300 °C, the remaining activity at 0.1 µM (RIP2 recombinant protein) is reported as less than 50% and the remaining activity at 1 µM (RIP2 recombinant protein) is reported as less than 50%. The IC50 (RIP2 recombinant protein) was less than 100 nM.

Compound `Clc1cc2cc(c1)-c1cnn3ccc(nc13)NC[C@@H]1CCCN1CCCO2` [Compound O9] has a melting point greater than 300 °C, a remaining activity at 0.1 µM (RIP2 recombinant protein) of less than 50% and a remaining activity at 1 µM (RIP2 recombinant protein) of less than 50%. It also gave an IC50 (RIP2 recombinant protein) of less than 100 nM.

For `Clc1cc2cc(c1)-c1cnn3ccc(nc13)NC[C@H]1CCCN1CCCO2` [Compound O3], the melting point was 186.4 °C, the remaining activity at 0.1 µM (RIP2 recombinant protein) was less than 50% and the remaining activity at 1 µM (RIP2 recombinant protein) was less than 50%. For the same compound, the IC50 (RIP2 recombinant protein) was less than 100 nM.

For `C[S+]([O-])c1ccc(-c2nc(-c3ccncc3)c(-c3ccc(F)cc3)[nH]2)cc1` (stereo not drawn) [SB203580], the “effect on induced colitis” value (RIP2) is given as “efficacious to reduce induced-colitis”.

In the case of `CN1C[C@@H]2CCCN2CCOc2cccc(c2)-c2cnn3ccc1nc23` [Compound O10], the melting point is reported as 198.5 °C, the remaining activity at 0.1 µM (RIP2 recombinant protein) is reported as less than 50% and the remaining activity at 1 µM (RIP2 recombinant protein) is reported as less than 50%. For the same compound, the IC50 (RIP2 recombinant protein) was less than 100 nM.

With `Fc1cc2cc(c1)-c1cnn3ccc(nc13)NC[C@@H]1CCCN1CCO2` [Compound O5] the melting point was 241 °C, the remaining activity at 0.1 µM (RIP2 recombinant protein) was less than 50% and the remaining activity at 1 µM (RIP2 recombinant protein) was less than 50%. For the same compound, the IC50 (RIP2 recombinant protein) was less than 100 nM.

For `Fc1c(Cl)cc2cc1OCCN1CCC[C@H]1CNc1ccn3ncc-2c3n1` [Compound O12], the remaining activity at 0.1 µM (RIP2 recombinant protein) was less than 50%, the remaining activity at 1 µM (RIP2 recombinant protein) was less than 50% and the IC50 (RIP2 recombinant protein) was less than 100 nM.
